Measurements taken from patent US6214581A, “Nucleic acids encoding a functional human purinoreceptor P2X3 and P2X6, and methods of production and use thereof” (Abbott Laboratories, priority 1998, dated 2001).
Read-outs that look alike come from different tables or passages of the source.

Assays:
P2X6 receptor = conditions: cited from earlier work
human P2X3 receptors = biological target: T1, human P2X3 receptors (Homo sapiens, UniProt P56373); assay: Two-electrode voltage-clamp of Xenopus oocytes expressing recombinant human P2X3 receptor; format: cell-based; conditions: for block of ATP-induced currents: ATP 0.3 μM, antagonist superfused at least 3 minutes before agonist; for block of P2X3 receptors: P2 receptor antagonists; for block of P2X3 receptors / rank order potency: summary; for rank order potency: extracellular P2 receptor agonists
T1 construct: expressed in transfected cells; host or cells: Xenopus laevis oocytes (nuclear injection of the P2X3 insert in pCDNA3.1)
T1 sequence (P56373 1-397): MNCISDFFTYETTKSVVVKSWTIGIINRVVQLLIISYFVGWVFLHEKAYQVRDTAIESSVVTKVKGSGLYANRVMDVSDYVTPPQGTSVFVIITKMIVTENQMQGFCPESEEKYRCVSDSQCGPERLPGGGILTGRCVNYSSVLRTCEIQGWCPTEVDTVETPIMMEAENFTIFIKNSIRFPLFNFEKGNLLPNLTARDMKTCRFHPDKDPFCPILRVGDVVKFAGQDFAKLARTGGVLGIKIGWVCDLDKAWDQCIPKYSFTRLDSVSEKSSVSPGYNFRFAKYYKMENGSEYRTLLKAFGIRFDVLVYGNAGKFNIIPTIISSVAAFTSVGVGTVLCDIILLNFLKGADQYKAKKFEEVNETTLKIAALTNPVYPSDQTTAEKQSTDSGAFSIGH
Protocol: Responses were measured at a holding potential of -60 mV in modified Barth's solution containing 10 mM BaCl2 and lacking CaCl2 and MgCl2 (final pH 7.4). However, in some experiments, the cell potential was intentionally varied in order to determine the response current-voltage relationship. Agonist was applied briefly using a computer-controlled solenoid valve and a push/pull applicator positioned to within 200-400 μm from the oocyte. Responses were recorded by computer in synchrony with agonist application. Antagonists were included with agonist in the push/pull applicator and were applied to the bath by superfusion for at least 3 minutes before application of agonist. Responses were quantified by measuring the peak amplitude.
The clone was grown up and prepared in large scale using the QIAgen maxiprep DNA preparation system according to the manufacturer's instructions. T he DNA was ethanol precipitated and resuspended in TE buffer. For RNA production, the P2X3 -pCDNA3.1 construct was linearized by digestion with the restriction enzyme NotI and P2X3 messenger RNA was produced using the T7 promoter in this vector and the Ambion mMessage mMachine™ in vitro transcription kit according to the manufacturer's instructions.
For functional anaysis of human P2X3 receptors, 10 ng of human P2X3 DNA prepared as described above were injected into the nucleus of Xenopus oocytes. Oocytes were incubated in normal Barth's solution containing 100 μg/ml gentamicin for 2-7 days following injection. The response to 10 μM ATP was then recorded.

P2X4 receptor = conditions: cited from earlier work
[1] = tested on: P2X receptors on dorsal root ganglion nerve terminals in the spinal cord; conditions: ATP-induced activation of P2X receptors on dorsal root ganglion nerve terminals; cited from earlier work
P2X2 = conditions: cited from earlier work
P2X1 = conditions: cited from earlier work

| SMILES | block of P2X6 receptor (P2X6 receptor) | block of ATP-induced currents (human P2X3 receptors) | block of P2X3 receptors (human P2X3 receptors) | block of P2X4 receptor (P2X4 receptor) | EC50 (human P2X3 receptors) [µM] | rank order potency (human P2X3 receptors) | other results |
| --- | --- | --- | --- | --- | --- | --- | --- |
| Cc1nc(N=Nc2ccc(S(=O)(=O)O)cc2S(=O)(=O)O)c(COP(=O)(O)O)c(C=O)c1O [PPADS, pyridoxal-phosphate-6-azophenyl-2',4'-disulfonic acid] | cannot be blocked | complete block | blocked | cannot be blocked | – | – | – |
| Cc1ccc(C(=O)Nc2ccc(S(=O)(=O)O)c3cc(S(=O)(=O)O)cc(S(=O)(=O)O)c23)cc1NC(=O)c1cccc(NC(=O)Nc2cccc(C(=O)Nc3cc(C(=O)Nc4ccc(S(=O)(=O)O)c5cc(S(=O)(=O)O)cc(S(=O)(=O)O)c45)ccc3C)c2)c1 [suramin] | cannot be blocked | complete block | blocked | cannot be blocked | – | – | – |
| Nc1ncnc2c1ncn2[C@@H]1O[C@H](COP(=O)(O)OP(=O)(O)OP(=O)(O)O)[C@@H](O)[C@H]1O [ATP] | – | – | – | – | ~0.7 | 2-methylthio-ATP>ATP>α,β-methylene-ATP | release of glutamate [1]: stimulates the release of glutamate; reversal potential (human P2X3 receptors; ATP-induced current-voltage relationships): approximately zero; current-voltage rectification (human P2X3 receptors; ATP-induced, negative membrane potentials): pronounced inward rectification; mixed-conductance cation current (human P2X3 receptors; extracellular ATP (10 μM), holding potential -60 mV, oocytes injected with human P2X3 DNA): 100-6000 nA |
| Nc1ncnc2c1ncn2[C@@H]1O[C@H](COP(=O)(O)CP(=O)(O)OP(=O)(O)O)[C@@H](O)[C@H]1O [α,β-methylene-ATP] | – | – | – | – | 2.1 | 2-methylthio-ATP>ATP>α,β-methylene-ATP | activation of P2X6 receptor (P2X6 receptor; agonist): not activated; sensitivity of P2X2 to agonist (P2X2): insensitive; sensitivity of P2X1 to agonist (P2X1): sensitive; activation of P2X4 receptor (P2X4 receptor; agonist): not activated |
| CSc1nc(N)c2ncn([C@@H]3O[C@H](COP(=O)(O)OP(=O)(O)OP(=O)(O)O)[C@@H](O)[C@H]3O)c2n1 [2-methylthio-ATP] | – | – | – | – | – | 2-methylthio-ATP>ATP>α,β-methylene-ATP | EC50 (human P2X3 receptors; concentration-response, agonist, human P2X3 in Xenopus oocytes, ATP 0.01-1000 μM, read-out: EC50): 0.4 µM |
